Our source for the K obs values is ChEMBL document CHEMBL1132670, “Combinatorial search of substituted beta-cyclodextrins for phosphatase-like activity” (Bioorg Med Chem Lett, 1999).

The structures appear in SMILES notation.

The data set in a line: Pseudo-first-order rate constant was determined by hydrolysis p-NPP in the presence of Zn 2+ at 37 C. The format is ADME.

Turning to `OC[C@H]1O[C@@H]2O[C@H]3[C@H](O)[C@@H](O)[C@@H](O[C@H]4[C@H](O)[C@@H](O)[C@@H](O[C@H]5[C@H](O)[C@@H](O)[C@@H](O[C@H]6[C@H](O)[C@@H](O)[C@@H](O[C@H]7[C@H](O)[C@@H](O)[C@@H](O[C@H]8[C@H](O)[C@@H](O)[C@@H](O[C@H]1[C@H](O)[C@H]2O)O[C@@H]8CO)O[C@@H]7CO)O[C@@H]6CO)O[C@@H]5CO)O[C@@H]4CO)O[C@@H]3CO` [BETADEX], the K obs is 4.16e-07 s⁻¹.
